Laboratory results taken from article PMC9595134, “Novel pituitary actions of GnRH in teleost: The link between reproduction and feeding regulation” (Frontiers in Endocrinology, 2022).
Where a SMILES comes first, the peptide text is derived from it. [ ]: non-standard residue; d: D form. pGlu = O=C1CC[C@@H](C(=O)O)N1

Columns and labels:
[1] = tested on: grass carp pituitary cells; experiment: qRT-PCR of anorectic genes in pituitary cells; format: cell-based, grass carp (Ctenopharyngodon idellus)
Procedure: (§1) The preparation of grass carp pituitary cells was performed as mentioned above. After drug treatment, the total RNA of these cells was isolated by TRIzol reagent and reverse transcribed into cDNA with Hifair™ III 1st Strand cDNA Synthesis Kit. The transcript levels of several anorectic peptides (POMCb, CART2, UTS1, NMBa, NMBb, and Lepr) and reproductive genes (GtHα, LHβ, FSHβ, INHBa, SgII, DRD2) were detected by using an ABI 7500 quantitative real-time PCR (qRT-PCR) system (Biosystems, USA) (information of primers for target genes is listed in Supplementary Table S3 ). In this process, a serial gradient dilution of plasmid DNA of these genes was used as a standard for data calibration. The conditions of qRT-PCR were set to 10 min, 95°C, for pre-degeneration; 15 s, 95°C, for degeneration; 30 s, 55°C–60°C, for annealing; 30 s, 72°C, for extending; and 20 s, 82°C, for signal detection with 40 cycles. Finally, the melt curve obtained through each test was used to verify and check the reliability and specificity of the corresponding qRT-PCR.
(§2) The transcript level was detected using qRT-PCR by ABI 7500 software, while the data calibration of each reaction was performed through standard curves with the dynamic range of 10^5 and correlation coefficient >0.95. The transcript level of β-actin was used as an internal control, and target gene mRNA expression was normalized and calculated as a percentage of the mean value (as “% Ctrl”). Based on merging four to eight replicates (as mean ± SEM), the data were analyzed with a one-way ANOVA to differentiate the significant differences from other treatment experiments. The SPSS Statistics 26.0 software was used to do a Dunnett’s post-hoc test. […] The different letters represent a significant difference at p < 0.05 between groups.
To further verify the functional role of GnRH2 and GnRH3 on feeding regulation, time- and dose-dependent tests were performed to detect the effect of GnRH2 and GnRH3 on anorectic gene (POMCb, CART2, UTS1, NMBa, NMBb, and LEPR) mRNA expression. In the time-course test, the grass carp pituitary cells were incubated by GnRH2 or GnRH3 (1 μM) for 3, 6, 12, and 24 h, respectively. […] In the dose-dependent test, grass carp pituitary cells were incubated by the continuous gradient dilution of GnRH2 or GnRH3 (0.1–1,000 nM) for 24 h.
Figure 9 Regulation of feeding hormone gene mRNA expression by GnRH2 and GnRH3 in grass carp pituitary cells. (A) Time-course experiment of grass carp GnRH2 (1 μM) and GnRH3 (1 μM) on POMCb, CART2, UTS1, NMBa, NMBb, and LEPR mRNA expression in grass carp pituitary cells. (B) Dose dependence of a 24-h treatment with increasing levels of GnRH2 and GnRH3 (0.1–1,000 nM) on POMCb, CART2, UTS1, NMBa, NMBb, and LEPR mRNA expression in grass carp pituitary cells. […]

goldfish = tested on: goldfish; design: method as in PMID 7507838, PMID 8045371; settings: sexually regressed animals, ref [34], [35]; cited from earlier work
[2] = tested on: grass carp pituitary cells; experiment: qRT-PCR of reproductive hormone genes in pituitary cells; format: cell-based, grass carp (Ctenopharyngodon idellus)
Procedure: as §1, §2
To further verify the reproductive function of GnRHs, time- and dose-dependent tests were performed to detect GnRH2- or GnRH3-regulated GtHα, LHβ, FSHβ, INHBa, SgII, and DRD2 mRNA expression in grass carp pituitary cells. […] In the dose-dependent test, a continuous gradient dilution of GnRH2 (0.1–1,000 nM) or GnRH3 (0.1–1,000 nM) was incubated with grass carp pituitary cells for 24 h.
Figure 5 Regulation of reproductive hormone gene mRNA expression by GnRH2 and GnRH3 in grass carp pituitary cells. (A) Time-course experiment of grass carp GnRH2 (1 μM) and GnRH3 (1 μM) on GtHα, LHβ, FSHβ, INHBa, SgII, and DRD2 mRNA expression in grass carp pituitary cells. (B) Dose dependence of a 24-h treatment with increasing levels of GnRH2 and GnRH3 (0.1–1,000 nM) on GtHα, LHβ, FSHβ, INHBa, SgII, and DRD2 mRNA expression in grass carp pituitary cells. After drug treatment, the pituitary cells were extracted to total RNA, reversed transcribed, and used for RT-PCR to detect the target genes’ mRNA expression. […] The different letters represent a significant difference at p < 0.05 between groups (ANOVA followed by a Dunnett test).

pituitary = settings: teleost; ref [5], [10]; cited from earlier work
From the text: Subsequently, GnRH2 had been firstly found in chicken so that this variant was also named as chicken GnRH (cGnRH) ([3]). In addition, the third GnRH variant (GnRH3) was an ubiquitous and unique subtype existing in fish ([3]), which was primitively discovered in salmon so that it was named as salmon GnRH (sGnRH) ([4]). Multiple GnRH variants (two or three forms) are present in all teleosts ([5]), but the receptor selectivity a ...

[3] = 1 μM, time-dependent, Figure 5A

## CC(C)C[C@H](NC(=O)[C@H](Cc1c[nH]c2ccccc12)NC(=O)CNC(=O)[C@H](Cc1ccc(O)cc1)NC(=O)[C@H](CO)NC(=O)[C@H](Cc1c[nH]c2ccccc12)NC(=O)[C@H](Cc1c[nH]cn1)NC(=O)[C@@H]1CCC(=O)N1)C(=O)N1CCC[C@H]1C(=O)NCC(N)=O [GnRH3] ([pGlu]HWSYGWLPG-NH2)
[1]; 1 μM, 3, 6, 12, and 24 h, time-dependent, Figure 9A
  effect on POMCb, CART2, UTS1, NMBa, NMBb, and LEPR mRNA expression, time course: significantly induce
[1]; 0.1–1,000 nM, 24 h, dose-dependent, Figure 9B
  effect on POMCb, CART2, UTS1, NMBa, NMBb, and LEPR mRNA expression, dose dependence: significantly induce
goldfish
  LH-releasing activity: potent LH-releasing activity
[2]; [3]
  effect on DRD2 mRNA expression, time course: inhibit
  effect on GtHα, LHβ, FSHβ, INHBa, and SgII mRNA expression, time course: significantly induce
[2]; 0.1–1,000 nM (all treated doses), 24 h, Figure 5B
  effect on DRD2 mRNA expression, dose test: significantly inhibit
[2]; 0.1–1,000 nM, 24 h, dose-dependent, Figure 5B
  effect on GtHα, LHβ, FSHβ, INHBa, and SgII mRNA expression, dose dependence: significantly induce
pituitary
  effect on LH and FSH secretion in the pituitary: could stimulate
